Among the data in PubChem BioAssay AID588665 (The Scripps Research Institute Molecular Screening Center, 2011) are inhibition values, retold here.

The target in this test is Early growth response protein 1 (Homo sapiens) (UniProt P18146). Nature of the test: EGR1 protein level change in SW620 cells, late-stage follow-up, counter-screen for KLF5 inhibitor project, cell-based, SW620 colorectal carcinoma, chemiluminescent western blot (AID 588665). Conditions: 24 h, at 10 µM, hits give high values. A general note: A counterscreen serves to expose hits that act by an unwanted route or on another target.
Chain of Early growth response protein 1 (Homo sapiens) (P18146 whole entry, looked up): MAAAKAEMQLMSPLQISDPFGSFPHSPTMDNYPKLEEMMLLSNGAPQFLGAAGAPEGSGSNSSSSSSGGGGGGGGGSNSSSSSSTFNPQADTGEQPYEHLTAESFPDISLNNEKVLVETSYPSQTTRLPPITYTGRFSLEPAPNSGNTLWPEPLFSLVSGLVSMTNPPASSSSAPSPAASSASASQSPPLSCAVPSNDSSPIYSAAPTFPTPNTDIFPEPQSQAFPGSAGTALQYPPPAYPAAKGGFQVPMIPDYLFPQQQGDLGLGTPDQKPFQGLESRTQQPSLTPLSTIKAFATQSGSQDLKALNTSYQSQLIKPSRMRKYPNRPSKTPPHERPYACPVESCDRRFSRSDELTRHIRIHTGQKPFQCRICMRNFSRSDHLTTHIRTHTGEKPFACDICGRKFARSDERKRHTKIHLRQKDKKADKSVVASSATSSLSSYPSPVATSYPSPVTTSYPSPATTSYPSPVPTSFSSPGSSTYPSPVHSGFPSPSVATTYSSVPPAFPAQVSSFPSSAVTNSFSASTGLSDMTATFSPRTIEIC

Calls of active or inactive are those of the source.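 The calls were made as follows: active = EGR1 protein level in colon cancer cells shifted at least 30% from solvent-only cells, up or down; inactive = shift under 30% either way.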

By inhibition is commonly meant the change of the read-out against control, counted positive when it falls. On to `CN(C(=O)CNC(=O)/C=C/c1cccc(Cl)c1)C1CCS(=O)(=O)C1` (stereo not drawn), for which the inhibition is -24.8% (inactive).

Turning to `CN(C(=O)COC(=O)/C=C/c1cccc([N+](=O)[O-])c1)C1CCS(=O)(=O)C1` (stereo not drawn), the inhibition is -14.8% (inactive).

Regarding `CN(C(=O)CNC(=O)/C=C/c1cccc(Cl)c1)C1CCS(=O)(=O)CC1`, the inhibition is 37%.
